Results published in patent publication US11905278B1, “6-(6-bromo-2-oxo-2H-chromen-3-yl)-4-(2-chlorophenyl)-2-alkoxynicotinonitrile as an antimicrobial compound” (KING FAISAL UNIVERSITY, priority 2023, dated 2024).

Assays:
Format in all cases: cell-based
Pseudomonas aeruginosa = assay: Agar plate disc-diffusion, antibacterial activity by inhibition zone
Method: (§1) The agar plate disc-diffusion method was applied. Sterilized filter papers (6 mm in diameter) were wetted with 10 μL of a solution of compounds 6-(6-bromo-2-oxo-2H-chromen-3-yl)-4-(2-chlorophenyl)-2-ethoxynicotinonitrile 1 or 6-(6-bromo-2-oxo-2H-chromen-3-yl)-4-(2-chlorophenyl)-2-methoxynicotinonitrile 2 to be tested, containing […], and the discs were allowed to air dry. The discs were then placed onto the surface of agar plates (nutrient agar for bacteria and Sabouraud's dextrose agar for fungi) seeded with the test organism. Each plate contained 15 mL of the agar medium, previously seeded with 0.2 mL of the broth culture of each organism pregrown for 18 hours. The plates were incubated at 37° C. for 48 hours, and 72 hours for fungi. The inhibition zones were measured in mm. Discs impregnated with DMSO were used as a control, and its inhibition zone was subtracted from the tested compound actual inhibition zone.
(§2) The results of the antimicrobial testing can be observed in Tables 1 and 2, below, using ciprofloxacin as a reference.

Escherichia coli = assay: as above
Method: as §1, §2

Bacillus cereus = assay: as above
Method: as §1, §2

Staphylococcus aureus = assay: as above
Method: as §1, §2

Aspergillus flavus = assay: Agar plate disc-diffusion, antifungal activity by inhibition zone
Method: as §1, §2

[1] = tested on: Chrysosporium keratinophilum; assay: as above
Method: as §1, §2

different microbes = assay: Antimicrobial testing, overall conclusion; settings: summary of Tables 1 and 2
Method: as §1
Their antibacterial activity was screened against gram positive bacteria namely Bacillus cereus and Staphylococcus aureus and gram-negative bacterial strains namely Pseudomonas aeruginosa and Escherichia coli, while their antifungal activity was screened against Aspergillus flavus and Chrysosporium keratinophilum.

[2] = A = concentration of comp. = 10,000 μL
[3] = B = concentration of comp. = 30,000 μL
[4] = C = concentration of comp. = 50,000 μL

SMILES | inhibition zone (Pseudomonas aeruginosa; [2]) | inhibition zone (Pseudomonas aeruginosa; [3]) | inhibition zone (Pseudomonas aeruginosa; [4]) | inhibition zone (Escherichia coli; [2]) | inhibition zone (Escherichia coli; [3]) | inhibition zone (Escherichia coli; [4]) | inhibition zone (Bacillus cereus; [2]) | inhibition zone (Bacillus cereus; [3]) | inhibition zone (Bacillus cereus; [4]) | inhibition zone (Staphylococcus aureus; [2]) | inhibition zone (Staphylococcus aureus; [3]) | inhibition zone (Staphylococcus aureus; [4]) | inhibition zone (Aspergillus flavus; [2]) | inhibition zone (Aspergillus flavus; [3]) | inhibition zone (Aspergillus flavus; [4]) | inhibition zone [1, 2] | inhibition zone [1, 3] | inhibition zone [1, 4] | antimicrobial activities (different microbes)
O=C(O)c1cn(C2CC2)c2cc(N3CCNCC3)c(F)cc2c1=O [Cip., ciprofloxacin, reference compound] | 29 mm | 30 mm | 53 mm | 30 mm | 39 mm | 60 mm | 29 mm | 30 mm | 42 mm | 43 mm | 44 mm | 53 mm | 29 mm | 30 mm | 42 mm | 29 mm | 30 mm | 53 mm | 
CCOc1nc(-c2cc3cc(Br)ccc3oc2=O)cc(-c2ccccc2Cl)c1C#N [Compound 1, 6-(6-bromo-2-oxo-2H-chromen-3-yl)-4-(2-chlorophenyl)-2-ethoxynicotinonitrile] | 26 mm | 30 mm | 40 mm | 27 mm | 38 mm | 49 mm | 26 mm | 29 mm | 39 mm | 17 mm | 20 mm | 36 mm | 19 mm | 21 mm | 29 mm | 26 mm | 27 mm | 38 mm | high antimicrobial activities
COc1nc(-c2cc3cc(Br)ccc3oc2=O)cc(-c2ccccc2Cl)c1C#N [Compound 2, 6-(6-bromo-2-oxo-2H-chromen-3-yl)-4-(2-chlorophenyl)-2-methoxynicotinonitrile] | 26 mm | 33 mm | 39 mm | 27 mm | 35 mm | 46 mm | 25 mm | 30 mm | 39 mm | 16 mm | 24 mm | 32 mm | 25 mm | 28 mm | 39 mm | 22 mm | 28 mm | 41 mm | high antimicrobial activities
